Source: the NIST ThermoML archive (doi:10.1016/j.fluid.2005.12.029)

Test: excess molar enthalpy (molar enthalpy of mixing); xn = mol fraction of the nth substance listed
Settings: 308.15 K, 12400 kPa, Fluid (supercritical or subcritical phases)

CCCCCC [hexane] + CO
Settings	excess molar enthalpy [kcal/mol]
x2 = 0.032	0.0609
x2 = 0.062	0.081
x2 = 0.118	0.0966
x2 = 0.145	0.113
x2 = 0.17	0.117
x2 = 0.218	0.125
x2 = 0.249	0.129
x2 = 0.803	0.113
x2 = 0.828	0.107
x2 = 0.851	0.0978
x2 = 0.872	0.0877
x2 = 0.903	0.0727
x2 = 0.928	0.0593
x2 = 0.959	0.0347

CCCCCCCCO [octan-1-ol] + CCCCCC
Settings	excess molar enthalpy [kcal/mol]
x1 = 0.033	0.0741
x1 = 0.05	0.086
x1 = 0.101	0.102
x1 = 0.153	0.111
x1 = 0.206	0.117
x1 = 0.3	0.122
x1 = 0.397	0.12
x1 = 0.447	0.115
x1 = 0.503	0.109
x1 = 0.602	0.0949
x1 = 0.653	0.0822
x1 = 0.696	0.0715
x1 = 0.749	0.059
x1 = 0.789	0.0483
x1 = 0.858	0.0313
x1 = 0.904	0.0163
x1 = 0.928	0.0148
x1 = 0.952	0.00526
